Laboratory results published in patent publication US20240182910A1, “DRUG-REGULATABLE TRANSCRIPTION FACTORS” (Senti Biosciences, Inc., priority 2021, published 2024).

Tests used:
NT (HdnoR-VP16) = NT (HdnoR-VP16) (Paenarthrobacter nicotinovorans, UniProt Q8GAF9); design: key to Response to inducer: T (transgene transcription): A, activation; DA, deactivation; DR, derepression; key to Response to inducer: TF (transcription factor): B, binding; D, dissociation; settings: NICE-OFF; PNIC (ONIC-PhCMVmin); cited from earlier work
NT (HdnoR-VP16), sequence (Q8GAF9 whole entry, added parts left off): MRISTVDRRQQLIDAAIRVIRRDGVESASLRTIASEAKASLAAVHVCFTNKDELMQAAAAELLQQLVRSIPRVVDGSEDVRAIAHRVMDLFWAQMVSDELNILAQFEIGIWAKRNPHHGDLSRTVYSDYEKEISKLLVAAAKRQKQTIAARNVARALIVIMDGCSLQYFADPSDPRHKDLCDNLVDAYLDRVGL

NS (HdnoR-KRAB) = test system: NS (HdnoR-KRAB); design: key to Response to inducer: T (transgene transcription): A, activation; DA, deactivation; DR, derepression; key to Response to inducer: TF (transcription factor): B, binding; D, dissociation; settings: NICE-ON; PNIC (PSV40-ONIC8); cited from earlier work
BIT (BirA-VP16) = BIT (BirA-VP16) (Escherichia coli, UniProt P06709); design: key to Response to inducer: T (transgene transcription): A, activation; DA, deactivation; DR, derepression; key to Response to inducer: TF (transcription factor): B, binding; D, dissociation; settings: PBIT3 (OBirA3-PhCMVmin); cited from earlier work
BIT (BirA-VP16), sequence (P06709 whole entry, added parts left off): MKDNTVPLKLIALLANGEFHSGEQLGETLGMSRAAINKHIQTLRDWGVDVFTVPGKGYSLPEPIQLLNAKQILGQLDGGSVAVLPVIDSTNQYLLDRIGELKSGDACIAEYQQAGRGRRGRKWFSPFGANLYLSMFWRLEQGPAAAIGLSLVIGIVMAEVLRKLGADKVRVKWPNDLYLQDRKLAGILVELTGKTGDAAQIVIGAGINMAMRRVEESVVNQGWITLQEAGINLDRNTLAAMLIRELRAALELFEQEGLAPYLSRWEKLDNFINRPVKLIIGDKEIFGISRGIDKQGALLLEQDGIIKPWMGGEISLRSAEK

ArgR-VP16 = test system: ArgR-VP16; design: key to Response to inducer: T (transgene transcription): A, activation; DA, deactivation; DR, derepression; key to Response to inducer: TF (transcription factor): B, binding; D, dissociation; settings: ART; PART (OARG-PhCMVmin); cited from earlier work
p65-TraR = test system: p65-TraR; design: key to Response to inducer: T (transgene transcription): A, activation; DA, deactivation; DR, derepression; key to Response to inducer: TF (transcription factor): B, binding; D, dissociation; settings: O7x(tra box)-PhCMVmin; cited from earlier work
cTA (CymR-VP16) = test system: cTA (CymR-VP16); design: key to Response to inducer: T (transgene transcription): A, activation; DA, deactivation; DR, derepression; key to Response to inducer: TF (transcription factor): B, binding; D, dissociation; settings: Cumate - activator; PCR5 (OCuO6-PhCMVmin); cited from earlier work
rcTA (rCymR-VP16) = test system: rcTA (rCymR-VP16); design: key to Response to inducer: T (transgene transcription): A, activation; DA, deactivation; DR, derepression; key to Response to inducer: TF (transcription factor): B, binding; D, dissociation; settings: Cumate - reverse activator; PCR5 (OCuO6-PhCMVmin); cited from earlier work
CymR = CymR (Pseudomonas putida, UniProt O33453); design: key to Response to inducer: T (transgene transcription): A, activation; DA, deactivation; DR, derepression; key to Response to inducer: TF (transcription factor): B, binding; D, dissociation; settings: Cumate - repressor; PCuO (PCMV5-OCuO); cited from earlier work
CymR, sequence (O33453 whole entry): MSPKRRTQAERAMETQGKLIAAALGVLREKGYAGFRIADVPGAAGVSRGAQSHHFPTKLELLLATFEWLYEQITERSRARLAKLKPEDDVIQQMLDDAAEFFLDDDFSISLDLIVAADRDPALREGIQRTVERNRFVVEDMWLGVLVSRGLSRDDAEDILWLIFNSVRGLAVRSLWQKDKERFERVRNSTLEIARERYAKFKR

ET (E-VP16) = test system: ET (E-VP16); design: key to Response to inducer: T (transgene transcription): A, activation; DA, deactivation; DR, derepression; key to Response to inducer: TF (transcription factor): B, binding; D, dissociation; settings: E-OFF; PETR (OETR-PhCMVmin); cited from earlier work
E-KRAB = test system: E-KRAB; design: key to Response to inducer: T (transgene transcription): A, activation; DA, deactivation; DR, derepression; key to Response to inducer: TF (transcription factor): B, binding; D, dissociation; settings: E-ON; PETRON8 (PSV40-OETR8); cited from earlier work
SCAE-KRAB = test system: SCAE-KRAB; design: key to Response to inducer: T (transgene transcription): A, activation; DA, deactivation; DR, derepression; key to Response to inducer: TF (transcription factor): B, binding; D, dissociation; settings: QuoRexE-ON (NOT IF gate); OscbR-OETR8-PhCMVmin; cited from earlier work
tTAE-KRAB = test system: tTAE-KRAB; design: key to Response to inducer: T (transgene transcription): A, activation; DA, deactivation; DR, derepression; key to Response to inducer: TF (transcription factor): B, binding; D, dissociation; settings: TET-OFFE-ON (NOT IF gate); OtetO7-OETR8-PhCMVmin; cited from earlier work
tTAPIT3E-KRAB = test system: tTAPIT3E-KRAB; design: key to Response to inducer: T (transgene transcription): A, activation; DA, deactivation; DR, derepression; key to Response to inducer: TF (transcription factor): B, binding; D, dissociation; settings: TET-OFFPIP-ONE-ON; OtetO7-OPIR3-OETR8-PhCMVmin; cited from earlier work
REDOX (REX-VP16) = REDOX (REX-VP16) (Streptomyces coelicolor, UniProt Q9WX14); design: key to Response to inducer: T (transgene transcription): A, activation; DA, deactivation; DR, derepression; key to Response to inducer: TF (transcription factor): B, binding; D, dissociation; settings: PROP (OROP-PhCMVmin); cited from earlier work
REDOX (REX-VP16), sequence (Q9WX14 whole entry, added parts left off): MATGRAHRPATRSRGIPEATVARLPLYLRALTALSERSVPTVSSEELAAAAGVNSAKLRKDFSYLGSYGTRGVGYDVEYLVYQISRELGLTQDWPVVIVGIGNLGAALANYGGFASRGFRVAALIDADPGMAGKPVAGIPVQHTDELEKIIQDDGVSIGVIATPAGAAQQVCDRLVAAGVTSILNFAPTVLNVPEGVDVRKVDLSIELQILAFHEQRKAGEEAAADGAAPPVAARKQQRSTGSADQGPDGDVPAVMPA

TtgA1 (TtgR-VP16) = TtgA1 (TtgR-VP16) (Pseudomonas putida, UniProt Q9AIU0); design: key to Response to inducer: T (transgene transcription): A, activation; DA, deactivation; DR, derepression; key to Response to inducer: TF (transcription factor): B, binding; D, dissociation; settings: PEACE; PTtgR1 (OTtgR-PhCMVmin); cited from earlier work
TtgA1 (TtgR-VP16), sequence (Q9AIU0 whole entry, added parts left off): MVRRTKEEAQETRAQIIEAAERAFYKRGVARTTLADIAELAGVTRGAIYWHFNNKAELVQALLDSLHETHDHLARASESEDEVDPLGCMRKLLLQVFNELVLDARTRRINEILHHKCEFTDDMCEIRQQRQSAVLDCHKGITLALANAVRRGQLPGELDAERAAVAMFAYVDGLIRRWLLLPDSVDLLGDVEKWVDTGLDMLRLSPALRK

SCA (ScbR-VP16) = test system: SCA (ScbR-VP16); design: key to Response to inducer: T (transgene transcription): A, activation; DA, deactivation; DR, derepression; key to Response to inducer: TF (transcription factor): B, binding; D, dissociation; settings: QuoRex; PSCA (OscbR-PhCMVmin)PSPA (OpapRI-PhCMVmin); cited from earlier work
SCS (ScbR-KRAB) = test system: SCS (ScbR-KRAB); design: key to Response to inducer: T (transgene transcription): A, activation; DA, deactivation; DR, derepression; key to Response to inducer: TF (transcription factor): B, binding; D, dissociation; settings: Q-ON; PSCAON8 (PSV40-OscbR8); cited from earlier work
SCAPIT3 = test system: SCAPIT3; design: key to Response to inducer: T (transgene transcription): A, activation; DA, deactivation; DR, derepression; key to Response to inducer: TF (transcription factor): B, binding; D, dissociation; settings: QuoRexPIP-ON (NOT IF gate); OscbR8-OPIR3-PhCMVmin; cited from earlier work
mUTS (KRAB-HucR) = test system: mUTS (KRAB-HucR); design: key to Response to inducer: T (transgene transcription): A, activation; DA, deactivation; DR, derepression; key to Response to inducer: TF (transcription factor): B, binding; D, dissociation; settings: UREX; PUREX8 (PSV40-OhucO8); cited from earlier work
VanA1 (VanR-VP16) = test system: VanA1 (VanR-VP16); design: key to Response to inducer: T (transgene transcription): A, activation; DA, deactivation; DR, derepression; key to Response to inducer: TF (transcription factor): B, binding; D, dissociation; settings: VAC-OFF; P1VanO2 (OVanO2-PhCMVmin); cited from earlier work
VanA4 (VanR-KRAB) = test system: VanA4 (VanR-KRAB); design: key to Response to inducer: T (transgene transcription): A, activation; DA, deactivation; DR, derepression; key to Response to inducer: TF (transcription factor): B, binding; D, dissociation; settings: VAC-ON; PVanON8 (PhCMV-OVanO8); cited from earlier work
[1] = test system: nicotine-inducible transcription factor; settings: U87MG reporter cells co-transduced with constructs 12 and 13 (cell group G); nicotine 10 uM and 1 uM; flow cytometry day 5; FIG. 2 and FIG. 3
Protocol: U87MG cells transduced with a 4×ZF10-1 BS_minYBTATA:mCherry vector (referred to as “reporter cells”) were plated at 6e5/cells in a 6 well plate on day 0.
Cannabinoid-inducible transcription factor constructs included a first monomer construct (construct 14) composed of a first anti-CBD VHH (CA-14), a zinc finger protein domain of SEQ ID NO: 1, a nuclear localization signal of SEQ ID NO: 2, a cleavable linker, and a BFP tag, and a second monomer construct (construct 15) composed of a 3×FLAG-tagged nuclear localization signal (NLS) of SEQ ID NO: 2, a VPR transcriptional activation domain, a second anti-CBD VHH that is oligomerizable with the first anti-CBD VHH (DB-21), a cleavable linker, and a GFP tag.
Day 5, flow cytometry was performed, and the cells were gate on GFP/BFP

PIT (PIP-VP16) = test system: PIT (PIP-VP16); design: key to Response to inducer: T (transgene transcription): A, activation; DA, deactivation; DR, derepression; key to Response to inducer: TF (transcription factor): B, binding; D, dissociation; settings: PIP-OFF; PPIR (OPIR-Phsp70 min); cited from earlier work
PIT3 (PIP-KRAB) = test system: PIT3 (PIP-KRAB); design: key to Response to inducer: T (transgene transcription): A, activation; DA, deactivation; DR, derepression; key to Response to inducer: TF (transcription factor): B, binding; D, dissociation; settings: PIP-ON; PPIRON (PSV40-OPIR3); cited from earlier work

Molecule: CN1CCCC1c1ccc(O)nc1 (centres unmarked) [6-Hydroxy-nicotine]
- Response to inducer: T (transgene transcription) (NT (HdnoR-VP16)): DA
- Response to inducer: TF (transcription factor) (NT (HdnoR-VP16)): D
- Response to inducer: T (transgene transcription) (NS (HdnoR-KRAB)): DR
- Response to inducer: TF (transcription factor) (NS (HdnoR-KRAB)): D

Molecule: O=C(O)CCCC[C@@H]1SC[C@@H]2NC(=O)N[C@@H]21 [Biotin]
- Response to inducer: T (transgene transcription) (BIT (BirA-VP16)): A
- Response to inducer: TF (transcription factor) (BIT (BirA-VP16)): B

Molecule: N=C(N)NCCC[C@H](N)C(=O)O [Construct 1-Arginine, 1-Arginine]
- Response to inducer: T (transgene transcription) (ArgR-VP16): A
- Response to inducer: TF (transcription factor) (ArgR-VP16): B

Molecule: CCCCCC(=O)CC(=O)N[C@H]1CCOC1=O [Construct 3-Oxo-C8-HSL, 3-Oxo-C8-HSL]
- Response to inducer: T (transgene transcription) (p65-TraR): A
- Response to inducer: TF (transcription factor) (p65-TraR): B

Molecule: CC(C)c1ccc(C(=O)O)cc1 [Cumate]
- Response to inducer: T (transgene transcription) (cTA (CymR-VP16)): DA
- Response to inducer: TF (transcription factor) (cTA (CymR-VP16)): D
- Response to inducer: T (transgene transcription) (rcTA (rCymR-VP16)): A
- Response to inducer: TF (transcription factor) (rcTA (rCymR-VP16)): B
- Response to inducer: T (transgene transcription) (CymR): DR
- Response to inducer: TF (transcription factor) (CymR): D

Molecule: CC[C@H]1OC(=O)[C@H](C)[C@@H](O[C@H]2C[C@@](C)(OC)[C@@H](O)[C@H](C)O2)[C@H](C)[C@@H](O[C@@H]2O[C@H](C)C[C@H](N(C)C)[C@H]2O)[C@](C)(O)C[C@@H](C)C(=O)[C@H](C)[C@@H](O)[C@]1(C)O [Erythromycin]
- Response to inducer: T (transgene transcription) (ET (E-VP16)): DA
- Response to inducer: TF (transcription factor) (ET (E-VP16)): D
- Response to inducer: T (transgene transcription) (E-KRAB): DR
- Response to inducer: TF (transcription factor) (E-KRAB): D
- Response to inducer: T (transgene transcription) (SCAE-KRAB): DR
- Response to inducer: TF (transcription factor) (SCAE-KRAB): D
- Response to inducer: T (transgene transcription) (tTAE-KRAB): DR
- Response to inducer: TF (transcription factor) (tTAE-KRAB): D
- Response to inducer: T (transgene transcription) (tTAPIT3E-KRAB): DR
- Response to inducer: TF (transcription factor) (tTAPIT3E-KRAB): D

Molecule: NC(=O)C1=CN([C@@H]2O[C@H](COP(=O)(O)OP(=O)(O)OC[C@H]3O[C@@H](n4cnc5c(N)ncnc54)[C@H](O)[C@@H]3O)[C@@H](O)[C@H]2O)C=CC1 [NADH]
- Response to inducer: T (transgene transcription) (REDOX (REX-VP16)): DA
- Response to inducer: TF (transcription factor) (REDOX (REX-VP16)): D

Molecule: O=C(CCc1ccc(O)cc1)c1c(O)cc(O)cc1O [Phloretin]
- Response to inducer: T (transgene transcription) (TtgA1 (TtgR-VP16)): DA
- Response to inducer: TF (transcription factor) (TtgA1 (TtgR-VP16)): D

Molecule: CC(C)CCCC[C@@H](O)[C@@H]1C(=O)OC[C@H]1CO [SCB1]
- Response to inducer: T (transgene transcription) (SCA (ScbR-VP16)): DA
- Response to inducer: TF (transcription factor) (SCA (ScbR-VP16)): D
- Response to inducer: T (transgene transcription) (SCS (ScbR-KRAB)): DR
- Response to inducer: TF (transcription factor) (SCS (ScbR-KRAB)): D
- Response to inducer: T (transgene transcription) (SCAPIT3): DA
- Response to inducer: TF (transcription factor) (SCAPIT3): D
- Response to inducer: T (transgene transcription) (SCAE-KRAB): DA
- Response to inducer: TF (transcription factor) (SCAE-KRAB): D

Molecule: O=c1[nH]c(=O)c2[nH]c(=O)[nH]c2[nH]1 [Uric acid]
- Response to inducer: T (transgene transcription) (mUTS (KRAB-HucR)): DR
- Response to inducer: TF (transcription factor) (mUTS (KRAB-HucR)): D

Molecule: COc1cc(C(=O)O)ccc1O [Vanillic acid]
- Response to inducer: T (transgene transcription) (VanA1 (VanR-VP16)): DA
- Response to inducer: TF (transcription factor) (VanA1 (VanR-VP16)): D
- Response to inducer: T (transgene transcription) (VanA4 (VanR-KRAB)): DR
- Response to inducer: TF (transcription factor) (VanA4 (VanR-KRAB)): D

Molecule: CN1CCCC1c1cccnc1 (centres unmarked) [nicotine]
- reporter (mCherry) expression: percent of mCherry positive cells and mean fluorescent intensity [1]: induced concentration-dependent reporter expression

Molecule: Pristinamycin I
- Response to inducer: T (transgene transcription) (PIT (PIP-VP16)): DA
- Response to inducer: TF (transcription factor) (PIT (PIP-VP16)): D
- Response to inducer: T (transgene transcription) (PIT3 (PIP-KRAB)): DR
- Response to inducer: TF (transcription factor) (PIT3 (PIP-KRAB)): D
- Response to inducer: T (transgene transcription) (SCAPIT3): DR
- Response to inducer: TF (transcription factor) (SCAPIT3): D
- Response to inducer: T (transgene transcription) (tTAPIT3E-KRAB): DR
- Response to inducer: TF (transcription factor) (tTAPIT3E-KRAB): D
